# Patent US11384115B2, “Nuclear sulfated oxysterol, potent regulator of lipid homeostasis, for therapy of hypercholesterolemia, hypertriglycerides, fatty liver diseases, and atherosclerosis” (Virginia Commonwealth University, priority 2004, dated 2022)
# Where two headings read alike, the source gives them in different places.
# Legend:
# [1] = Water solubility (statement); assay type: physicochemical
# [2] = system: PPARγ; assay: PPRE promoter reporter gene-luciferase assay in H441 cells; assay type: cell-based, human
# Method: H441 cells were seeded in 96-well plates. When cell density reached 90-95%, the cells were transfected with an expression plasmid as indicated using a lipid-based FuGENE HD transfection reagent according to the manufacture (Roche, Indianapolis, Ind.). A synthetic renilla luciferase reporter, phrG-TK (Promega, Wisconsin, Wis.), was used as a luciferase internal standard. For PPRE reporter gene assay, 50 ng of pGL3-PPRE-acyl-CoA oxidase luciferase reporter, 50 ng of expression plasmid pCMX-PPARγ, and 50 ng of phrG-TK vector (internal standard) were cotransfected as per the manufacture's instruction. […] Luciferase activities were determined using the Dual-Glo Luciferase Assay System according to the manufacturer's protocol (Promega, Wisconsin, Wis.). The amount of luciferase activity was measured using a TopCount NXT Microplate Scintillation and Luminescence Counter (Packard, Meriden, Conn.) and normalized to the amount of phG-TK luciferase activity. Transfections were carried out in triplicate for each sample, and each experiment was repeated three times.
# [3] = system: ABCA1, ABCG1, ABCG5, ABCG8 gene expression; assay: LXR targeting gene expression by real time RT-PCR in primary hepatocytes; assay type: cell-based, mouse
# Description: FIG. 10. ABCA1 (A1), ABCG1 (G1), LDL receptor (LDLR), ABCG5 (G5), and ABCG8 (G8) gene expression in primary mouse hepatocytes following addition of the purified nuclear oxysterol. At 24 hrs following the addition, cells were harvested and total RNAs were extracted and gene expression levels were quantitated by real time RT-PCR. β-Actin mRNA was used as total mRNA internal standard. The gene expression levels in cells […] were compared with those in control cells. Ten μg of total RNA was used for cDNA preparation (RT) and 10 ng of cDNA was used for PCR. The expression levels were normalized to β-actin.
# Preliminary experiments have shown that the purified nuclear oxysterol up-regulates bile acid synthesis. To further investigate the mechanism of this activity, the effect of purified 5-cholesten-3β, 25-diol 3-sulphate on gene expression of LXR-targeted cholesterol transport proteins ABCA1, ABCG1, ABCG5, ABCG8, and LDLR was investigated. Purified nuclear sulfated oxysterol was added to primary hepatocytes in culture, and mRNA levels of the transport proteins were quantitated by real time RT-PCR. The primer sets and TagMan probes for detection of mRNA levels were purchased from AB Applied Biosystem (Foster City, Calif.) and the reactions were performed on an MJ Research DNA Engine Opticon instrument.
# [4] = primary hepatocytes in culture, mRNA
structure (smiles),measurement,setting,value
"C[C@H](CCCC(C)(C)O)[C@H]1CC[C@H]2[C@@H]3CC=C4C[C@@H](OS(=O)(=O)O)CC[C@]4(C)[C@H]3CC[C@]12C [25HC3S, 5-cholesten-3β, 25-diol 3-sulphate]",water solubility,[1],water soluble
same,water solubility,[1]; listed as 25-hydroxycholesterol 3-sulfate,water-soluble
same,PPARγ reporter gene activities in the presence of the antagonist T0070907,"[2]; H441, ACOX-PPRE reporter and PPARγ co-overexpression, 1 μM T0070907",failed
same,PPRE activity relative to rosiglitazone,[2]; at 25 μM,reached to a similar levels as that induced by the PPARγ agonist rosiglitazone
same,increased expression of ABCA1,[3]; [4],2 fold
same,increased expression of ABCG5,[3]; [4],1.6 fold
same,increased expression of ABCG8,[3]; [4],3 fold
same,expression of ABCG1,"[3]; primary hepatocytes, compared with control cells",did not change
